# Like-named read-outs stand apart in the source and are kept apart here.
# Experiments:
# InhA [1] = molecular target: T1, InhA (Mycobacterium tuberculosis, UniProt P9WGR1); assay: InhA enzymatic assay (NADH oxidation at 340 nm, 2-trans-octanoyl-CoA substrate); type: biochemical; conditions: for LE (ligand efficiency): LE = (1.37 × pIC50)/HA; for IC50: average of three experiments
# Experimental: The identified fragment hits were further evaluated by an InhA enzymatic assay using 2-trans-octanoyl-CoA as a substrate.[22]
# The carboxylic acid in fragment 1 (P1) was replaced by an isosteric sulfonamide as a linker to synthesize compound 6 (Figure 2b). Docking experiments with Glide XP[23] […] All the synthesized compounds were tested at a concentration of 100 μM using the InhA enzymatic assay.
# InhA activity was followed by a colorimetric assay that measured the oxidation of NADH at 340 nm in the presence of 2-trans-octanoyl-CoA as described before in a buffer that contained 30 mM PIPES, pH 7.5, 50 mM NaCl, 0.1 mM EDTA, and 100 nM InhA.[26] This was preincubated for 10 min at room temperature with 0.25 mM NADH and varying concentrations of the compounds with 1% (v/v) DMSO in a 150 μL reaction volume. The reaction was started by the addition of 2-trans-octanoyl-CoA at a final concentration of 1.5 mM, prepared as described previously.[22] Reactions were followed for 20 min using a plate reader (CLARIOstar, BMG LABTECH).
# M. tuberculosis H37Ra = assay: Growth inhibition of M. tuberculosis H37Ra, 48 h cultivation; type: cell-based, Mycobacterium tuberculosis; conditions: for inhibition at 200 µM: 200 μM compound in the media, 48 h cultivation
# Experimental: (§1) Further analysis of the effect on the synthesis of mycolic acids by metabolic labeling[24],[25] of the model strain M. tuberculosis H37Ra with ^14C acetate was also explored. A 48 h cultivation in the presence of 200 μM of the compounds in the media led to 84% growth inhibition for compound 19; 40% and 33% growth inhibition for compounds 14 and 23, respectively; 38% growth inhibition for compound 24 and isoniazid; 23% growth inhibition for compounds 25 and 26.
# The culture of M. tuberculosis H37Ra was grown statically at 37 °C in Middlebrook 7H9 broth (Difco) supplemented with albumin–dextrose–catalase and 0.05% Tween 80. When the culture reached the OD600nm value of 0.290, it was divided into 10 mL aliquots and tested compounds dissolved in DMSO were added at 200 μM final concentrations, while isoniazid that served as a control inhibitor was at 40 μM. The final concentration of DMSO in each culture was at 1%. After 24 h of cultivation with shaking (120 rpm) in the presence of tested inhibitors, ^14C acetate (specific activity of 106 mCi/mmol) was added at a final concentration of 0.5 μCi/mL and the cells were cultivated for the next 24 h.
# [2] = test system: synthesis of mycolic acids in M. tuberculosis H37Ra; assay: Metabolic labeling with 14C acetate, TLC of FAME/MAME (mycolic acid synthesis); type: cell-based, Mycobacterium tuberculosis; conditions: isoniazid control at 40 μM, 14C acetate labeling
# Experimental: as §1
# Figure 5 (A) TLC of the metabolic labeling experiments of M. tuberculosis H37Ra with ^14C acetate treated with the compounds 14, 19, and 23–26 for the analysis of mycolic acid inhibition. Fatty acid methyl esters, FAME; mycolic acid methyl esters, MAME; isoniazid, INH. (B) TLC of the metabolic labeling experiments of M. tuberculosis H37Ra with ^14C acetate treated with the compounds 14, 19, and 23–26 for the analysis of the lipid inhibition. Trehalose monomycolates, TMM; trehalose dimycolates, TDM; phosphatidylethanolamine, PE; cardiolipin, CL; isoniazid, INH.
# The culture of M. tuberculosis H37Ra was grown statically at 37 °C in Middlebrook 7H9 broth (Difco) supplemented with albumin–dextrose–catalase and 0.05% Tween 80. […]
# Fatty acid methyl esters (FAMEs) and mycolic acids methyl esters (MAMEs) were prepared from whole cells harvested from 4 mL culture aliquots as previously described.[32] […] 3× and detected by autoradiography.
# InhA [3] = molecular target: T1, InhA; assay: Differential scanning fluorimetry (fluorescence-based thermal-shift assay); type: binding; conditions: for ΔTm (thermal shift of InhA): fragments 5 mM, InhA 10 μM, NAD+ 1 mM
# Experimental: Differential scanning fluorimetry (DSF) was used to screen an in-house library of 800 rule-of-three-compliant fragments. A saturating concentration of the cofactor in oxidized form (1 mM NAD^+) was used in all the experiments to ensure that the cofactor binding site would be occupied by NAD^+ and that fragments would not bind there. […] Upon screening of the fragment library, a hit was defined where the melting point was increased by at least +3 °C at a concentration of 5 mM (Figure 1a).
# The substrate binding regions of InhA are divided into three sites: site I, site II, and site III.
# Differential scanning fluorimetry was used to screen a library of 800 fragments. The assay was performed in a 96 well plate format using a CFX Connect (Bio-Rad). Each well contained a solution of 10 μM InhA, 1 mM NAD^+, HEPES (50 mM), NaCl (150 mM), pH 7.5, 5× Sypro Orange, 5% DMSO, and fragments at 5 mM. […] Controls were made in quadruplicates for all the experiments.
# [4] = 100 μM compound, read-out: Inh % (inhibition percentage of InhA)
# [5] = supplementary CSV, read-out: % inhibition
# [6] = Mycobacterium tuberculosis, H37RA
# T1 sequence (P9WGR1 whole entry, looked up, the tested form may be a part): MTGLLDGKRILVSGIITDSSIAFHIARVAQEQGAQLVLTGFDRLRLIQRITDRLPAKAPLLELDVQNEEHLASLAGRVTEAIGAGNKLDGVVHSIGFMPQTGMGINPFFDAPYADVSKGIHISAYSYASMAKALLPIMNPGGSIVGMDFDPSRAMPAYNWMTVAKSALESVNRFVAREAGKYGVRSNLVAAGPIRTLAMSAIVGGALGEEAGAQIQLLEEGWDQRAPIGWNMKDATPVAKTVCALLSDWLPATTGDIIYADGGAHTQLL
Compound,inhibition at 100 µM (InhA [1]; [4]),inhibition at 100 µM (InhA [1]; [5]),also measured
"O=C(O)c1ccc(NS(=O)(=O)/C=C/c2cccc(C(F)(F)F)c2)cc1 [compound 17, (E)-4-((2-(3-(Trifluoromethyl)phenyl)vinyl)sulfonamido)benzoic Acid]",0%,0%,
"O=S(=O)(/C=C/c1cccc(C(F)(F)F)c1)NC1CCNCC1 [compound 7, (E)-N-(Piperidin-4-yl)-2-(3-(trifluoromethyl)phenyl)ethene-1-sulfonamide]",15%,15%,
"CNCc1ccc(NS(=O)(=O)/C=C/c2cccc(C(F)(F)F)c2)cc1 [compound 15, (E)-N-(4-((Methylamino)methyl)phenyl)-2-(3-(trifluoromethyl)phenyl)ethene-1-sulfonamide]",0%,0%,
"Cc1c(S(=O)(=O)Nc2cccc(CN)c2)sc2ccc(F)cc12 [compound 24, N-(3-(Aminomethyl)phenyl)-5-fluoro-3-methylbenzo[b]thiophene-2-sulfonamide]",> 90%,> 90%,inhibition at 200 µM (M. tuberculosis H37Ra; [6]): 38%; LE (ligand efficiency) (InhA [1]): 0.40; IC50 (InhA [1]): 0.25 µM
"O=S(=O)(/C=C/c1cccc(C(F)(F)F)c1)Nc1ccccc1 [compound 6, (E)-N-Phenyl-2-(3-(trifluoromethyl)phenyl)ethene-1-sulfonamide]",54%,54%,
"CC(C)(C)c1ccc(S(=O)(=O)Nc2cccc(CN)c2)cc1 [compound 21, N-(3-(Aminomethyl)phenyl)-4-(tert-butyl)benzenesulfonamide]",40%,40%,
"COc1ccc(NS(=O)(=O)/C=C/c2cccc(C(F)(F)F)c2)cc1 [compound 12, (E)-N-(4-Methoxyphenyl)-2-(3-(trifluoromethyl)phenyl)ethene-1-sulfonamide]",15%,15%,
"Nc1ccc(NS(=O)(=O)/C=C/c2cccc(C(F)(F)F)c2)cc1 [compound 11, (E)-N-(4-Aminophenyl)-2-(3-(trifluoromethyl)phenyl)ethene-1-sulfonamide]",6%,6%,
(E)-4-((2-(3-(Trifluoromethyl)phenyl)vinyl)sulfonamido)benzamide [compound 18],,,Inh % (inhibition percentage of InhA) (InhA [1]; 100 μM compound): 0%; % inhibition (InhA [1]; supplementary CSV): 0%
"CC(=O)NCc1ccc(NS(=O)(=O)/C=C/c2cccc(C(F)(F)F)c2)cc1 [compound 16, (E)-N-(4-((2-(3-(Trifluoromethyl)phenyl)vinyl)sulfonamido)benzyl)acetamide]",25%,25%,
"NCc1ccc(NS(=O)(=O)/C=C/c2cccc(C(F)(F)F)c2)cc1 [compound 14, (E)-N-(4-(Aminomethyl)phenyl)-2-(3-(trifluoromethyl)phenyl)ethene-1-sulfonamide]",> 90%,> 90%,inhibition at 200 µM (M. tuberculosis H37Ra; [6]): 40%; LE (ligand efficiency) (InhA [1]): 0.29; IC50 (InhA [1]): 9 µM; fold increase of the potency from compound 6 (InhA [1]; compared to compound 6): 10 fold
"COC(=O)Cc1ccc(NS(=O)(=O)/C=C/c2cccc(C(F)(F)F)c2)cc1 [compound 13, Methyl-(E)-2-(4-((2-(3-(trifluoromethyl)phenyl)vinyl)sulfonamido)phenyl)acetate]",24%,24%,
"CC(C)(C)OC(=O)Nc1ccc(NS(=O)(=O)/C=C/c2cccc(C(F)(F)F)c2)cc1 [compound 10, tert-Butyl-(E)-(4-((2-(3-(trifluoromethyl)phenyl)vinyl)sulfonamido)phenyl)carbamate]",11%,11%,
"NNC(=O)c1ccncc1 [isoniazid, reference compound]",,,"inhibition at 40 µM (M. tuberculosis H37Ra; Mycobacterium tuberculosis, H37RA, 48 h, read-out: growth inhibition): 38%; effect on synthesis of mycolic acids [2]: complete abolition"
"O=C(O)c1ccccc1-n1cccn1 [compound 5, 2-(1H-pyrazol-1-yl)benzoic acid]",,,DTm (InhA [3]): 6 oC; ΔTm (thermal shift of InhA) (InhA [3]): +6.0 °C
"NCc1cccc(NS(=O)(=O)CCc2cccc3ccccc23)c1 [compound 22, N-(3-(Aminomethyl)phenyl)-2-(naphthalen-1-yl)ethane-1-sulfonamide]",17%,17%,
"O=C(O)CCc1cccc(Cl)c1 [compound 4, 3-(3-chlorophenyl)propanoic acid]",,,DTm (InhA [3]): 3 oC; ΔTm (thermal shift of InhA) (InhA [3]): +3.0 °C
"Cc1c(S(=O)(=O)Nc2cccc(CN)c2)sc2ccc(Cl)cc12 [compound 23, N-(3-(Aminomethyl)phenyl)-5-chloro-3-methylbenzo[b]thiophene-2-sulfonamide]",> 90%,> 90%,activity against M. tuberculosis (M. tuberculosis H37Ra): inactive; inhibition at 200 µM (M. tuberculosis H37Ra; [6]): 33%
"NCc1cccc(NS(=O)(=O)c2cc3ccccc3o2)c1 [compound 26, N-(3-(Aminomethyl)phenyl)benzofuran-2-sulfonamide]",,66%,inhibition at 200 µM (M. tuberculosis H37Ra; [6]): 23%; inhibition at 100 µM (InhA [1]; read-out: Inh % (inhibition percentage of InhA)): 66%
"O=S(=O)(/C=C/c1cccc(C(F)(F)F)c1)Nc1ccc2c(c1)CNCC2 [compound 20, (E)-N-(1,2,3,4-Tetrahydroisoquinolin-7-yl)-2-(3-(trifluoromethyl)phenyl)ethene-1-sulfonamide]",0%,0%,
"O=C(O)c1cc2ccccc2cc1O [compound 3, 3-hydroxy-2-naphthoic acid]",,,DTm (InhA [3]): 4.2 oC; ΔTm (thermal shift of InhA) (InhA [3]): +4.2 °C
"NCc1cccc(NS(=O)(=O)c2cc3ccccc3s2)c1 [compound 25, N-(3-(Aminomethyl)phenyl)benzo[b]thiophene-2-sulfonamide]",> 90%,> 90%,inhibition at 200 µM (M. tuberculosis H37Ra; [6]): 23%; IC50 (InhA [1]): 6 µM
"O=C(O)c1ccccc1C(=O)c1ccc(Cl)c([N+](=O)[O-])c1 [compound 2, 2-(4-chloro-3-nitrobenzoyl)benzoic acid]",,,DTm (InhA [3]): 4.2 oC; ΔTm (thermal shift of InhA) (InhA [3]): +4.2 °C
"O=C(O)/C=C/c1cccc(C(F)(F)F)c1 [compound 1, (E)-3-(3-(trifluoromethyl)phenyl)acrylic acid]",,,"Inhibition of InhA (InhA [1]; 2 mM fragment, triplicate): 0%; DTm (InhA [3]): 3.2 oC"
"O=S(=O)(/C=C/c1cccc(C(F)(F)F)c1)Nc1cccnc1 [compound 8, (E)-N-(Pyridin-3-yl)-2-(3-(trifluoromethyl)phenyl)ethene-1-sulfonamide]",17%,17%,
"COC(=O)c1ccc(NS(=O)(=O)/C=C/c2cccc(C(F)(F)F)c2)cc1 [compound 9, Methyl-(E)-4-((2-(3-(trifluoromethyl)phenyl)vinyl)sulfonamido)benzoate]",0%,0%,
